The text below walks through data of patent US6858428B2, “Human and animal cell culture medium containing antithrombin III for suppressing cell death” (Agency of Industrial Science and Technology, priority 1999, dated 2005).

For this experiment, the system named is hepatoma cell line HepG2. The experiment is described as follows: Survival of hepatoma cell line HepG2 in serum-free culture (viable cell count after 3 days). The experiment is classed as cell-based. Conditions: for Survival rate: HepG2, DMEM without fetal bovine serum; for Effect in controlling cell death (in words): HepG2, serum-free medium, concentration not given. On the procedure: Two mL cell suspension of hepatoma cell line HepG2 dispersed in trypsin (5×10^5 cells) were inoculated on six multi-well plates and pre-culture by using Dulbecco's modified Eagle medium (DMEM) containing 5% fetal bovine serum, 1.6 g/L sodium hydrogencarbonate, 0.584 g/L L-glutamine, and 0.08 g/L kanamycin sulfate at 37° C. in a 5% CO2 gas phase. […] The viable cell count was assayed after 3 days of culture.
The hepatoma cell line HepG2 was pre-cultured in the same manner as in Example 1. After 1 day, the broth was recovered, the cell surfaces were washed with serum-free medium, and the culture was continued for another 3 days with the addition of medium containing 5%, 0% fetal bovine serum, or 2 mL of fresh medium comprising antithrombin III added in concentrations ranging from 1 to 25 μg/mL to media containing no fetal bovine serum (0%). The viable cell count was assayed after 3 days of culture.
The hepatoma cell line HepG2 was pre-cultured in the same manner as in Example 1. After 1 day, the broth was recovered, the cell surfaces were washed with serum-free medium, and the culture was continued for another 3 days with the addition of medium containing 5%, 0% fetal bovine serum, or 2 mL of fresh medium comprising antithrombin III or any of-various synthetic protease inhibitors given in Table 4 added to media containing no fetal bovine serum (0%). The viable cell count was assayed after 3 days of culture.

As to `NCCc1ccc(S(=O)(=O)F)cc1` [AEBSF, reference compound], the “Effect in controlling cell death (in words)” value (from here on “Effect”) is reported as “effective in controlling cell death”. Where the note is “additive 50 μg/ml”, this molecule yielded a Survival rate of 92.2%. Molecule `N=C(N)c1ccc(CS(=O)(=O)F)cc1` [APMSF, reference compound] had a Survival rate (additive 40 μg/ml) of 74.0%. As to `CC(=O)N[C@@H](CC(C)C)C(=O)N[C@@H](CC(C)C)C(=O)N[C@H](C=O)CCCNC(=N)N` [Leupeptin, reference compound], for the setting “additive 0.5 μg/ml”, the Survival rate was 65.5%. In the case of `Cc1ccc(S(=O)(=O)N[C@@H](CCCCN)C(=O)CCl)cc1` [TLCK, reference compound], the “Effect” value is given as “effective in controlling cell death”. The same molecule gave a Survival rate (additive 50 μg/ml) of 89.3%. In the case of “IGF-1: growth factor reported as survival factor”, the Survival rate (additive 50 ng/ml) is on record as 45.3%. Under “additive 0.1 μM”, “Insulin: hormone reported as survival factor” showed a Survival rate of 53.0%.

Turning to “Orosomucoide: typical serum protein used for comparison”, the “Effect” value is reported as “virtually no effect in controlling cell death”. Further, where the note is “additive 48.8 μg/ml”, the Survival rate was 61.5%. In the case of “PDGF-AA: growth factor reported as survival factor”, the Survival rate (additive 50 ng/ml) was 54.0%.

For the molecule “Transferrin: typical serum protein used for comparison”, the “Effect” value was “virtually no effect in controlling cell death”. This molecule also showed a Survival rate (additive 150 μg/ml) of 62.8%. “aFGF: growth factor reported as survival factor” had a Survival rate (additive 10 ng/ml) of 59.6%. The same measure, in the same setting: under “bFGF: growth factor reported as survival factor” stands 55.2%. For “α 1-antitrypsin: typical serum protein used for comparison”, the “Effect” value is “virtually no effect in controlling cell death”. Besides, under “additive 150 μg/ml”, the Survival rate is 72.7%.
